This note sets out measurements from US12642860B2, “Filamentous nanostructures and their use for treatment of pulmonary disease” (THE JOHNS HOPKINS UNIVERSITY, priority 2019, dated 2026).

Data set [1] can be described thus: Loading capacity of drugs/dye within KPA filaments. The data set is classed as physicochemical. The following applies: encapsulated in KPA filaments, % by mass. An excerpt: FIGS. 20A-20C show (20A) the molecular structure of the lung disease-relevant drugs and fluorescent dye used in loading within the supramolecular filaments: paclitaxel (PTX, MW=853.92 g/mol), the anticancer drug; coumarin 6 (Cou6, MW=350.44 g/mol), the green fluorescent dye; and budesonide (BUD, MW=430.54 g/mol), the anti-inflammatory glucocorticoid used to treat symptoms of asthma and chronic obstructive pulmonary disease (top). (20B) The encapsulation process of hydrophobic drugs and dyes within supramolecular peptide amphiphile (PA)-based filaments, where dissolution of PA monomers and drug/dye in aqueous solutions results in their self-assembly with the drug/dye loaded within the hydrophobic core (left). The loading capacity of PTX, Cou6, and BUD based on mass (left axis, solid bars) and mole (right axis, checkered bars) percent within KPA supramolecular filaments (right). Data are given as mean±SD (n=5). (20C) Representative transmission electron microscopy (TEM) images of KPA filaments loaded with PTX (i, ii), Cou6 (iii, iv), and BUD (v, vi) before and after nebulization at 500 μM. Diameters are given as mean±SD (n=35).
With better insight into nebulization stability and the mechanism of supramolecular filament breakdown, we next sought to assess whether these systems can successfully carry drugs and dyes within aerosol droplets for potential inhalation-based therapies. […]

A short description of data set [2]: Jet nebulizer release profile and output. The data set is classed as physicochemical. To be noted: within KPA filaments 1 mM. The protocol: FIGS. 24A-24F are jet nebulizer release profiles of EPA, OPA, and KPA supramolecular filaments with starting formulation concentrations at (24A) 10 μM, (24B) 100 μM, and (24C) 1000 μM, showing a linear release pattern for each system over the course of a 10 min nebulization event (3 mL solution). Data given represent mean #SD (n=3); dashed lines represent line of best fit from linear regression analysis. (24D) The aerosol output rate (μg/min) of the supramolecular filaments from a jet nebulizer at different formulation concentrations, showing no statistically significant difference (ns) between filaments at the same concentration and output rate scales linearly with increasing concentration. Data are given as mean±SD (p>0.05 amongst filament systems, ****p<0.0001 amongst concentrations, two-way ANOVA, n=3). […]
We next monitored the release pattern of the supramolecular filaments in aerosol droplets from a jet nebulizer device alongside the output rate. First analyzing the blank EPA, OPA, and KPA filaments, 3 mL solutions of the filaments were loaded into a jet nebulizer at varying concentrations and the remaining concentration of PA molecules and fluid weight loss were monitored over the course of a 10 min nebulization event. FIGS. 24A-C represents the measured release profile of the three filament systems at 10 µM, 100 μM, and 1000 μM, respectively. […]

Structures are written as SMILES.

Regarding `CC(=O)O[C@H]1C(=O)[C@@]2(C)[C@H]([C@H](OC(=O)c3ccccc3)[C@]3(O)C[C@H](OC(=O)[C@H](O)[C@@H](NC(=O)c4ccccc4)c4ccccc4)C(C)=C1C3(C)C)[C@]1(OC(C)=O)CO[C@@H]1C[C@@H]2O` [PTX, paclitaxel], in data set [1], the “loading capacity by mass within KPA filaments” value is 1.5%.
Consider `CCN(CC)c1ccc2cc(-c3nc4ccccc4s3)c(=O)oc2c1` [Cou6, coumarin 6], for which the “loading capacity by mass within KPA filaments” value in data set [1] amounted to 3.7%. Besides, the “aerosol output rate of encapsulated molecules” value in data set [2] is “comparable but higher than PTX”.
